Assay results taken from publication PMC10890502, “Prevention of Protease-Induced Degradation of Desmoplakin via Small Molecule Binding” (Journal of Personalized Medicine, 2024).
Numbering of substitutions follows the chain as printed. Counter-ions that a name gives are not always drawn. Like-named read-outs stand apart in the source and are kept apart here.

Experiments:
Assay in all cases: biochemical
sDSP (DSP178–627) [1] = target: T1, sDSP (DSP178–627) (Homo sapiens, UniProt P15924, S442F); set-up: FITC-sDSP degradation by calpain (1:20), fluorescence polarization after 60 min, per cent of calpain-only control; conditions: degradation rate of DSP S442F by calpain; read-out: % of control remaining
T1 construct: gene DSP; N-terminal spectrin repeat/SH3 fragment, residues 178-627; pGEX-1 GST fusion cut with thrombin, E. coli BL21(DE3); fluorescein-5-maleimide label on exposed cysteines (C405, C524)
T1 sequence (P15924 178-627 S442F): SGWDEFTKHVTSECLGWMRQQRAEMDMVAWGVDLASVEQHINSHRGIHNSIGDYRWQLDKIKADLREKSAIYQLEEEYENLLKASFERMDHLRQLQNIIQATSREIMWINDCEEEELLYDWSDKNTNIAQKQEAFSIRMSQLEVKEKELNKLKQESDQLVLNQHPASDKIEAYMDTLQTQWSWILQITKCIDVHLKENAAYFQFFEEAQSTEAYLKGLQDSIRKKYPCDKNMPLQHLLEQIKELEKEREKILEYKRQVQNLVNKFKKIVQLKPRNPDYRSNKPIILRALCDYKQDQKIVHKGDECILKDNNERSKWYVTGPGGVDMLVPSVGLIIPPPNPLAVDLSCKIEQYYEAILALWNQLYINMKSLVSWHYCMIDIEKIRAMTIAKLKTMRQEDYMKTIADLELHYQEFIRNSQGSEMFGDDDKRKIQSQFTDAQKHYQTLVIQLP
Description: (§1) Fluorescence Polarization (FP) assays were conducted in […] format using a BioTek Synergy H4 plate reader with polarization capacity (Agilent; Savage, MD, USA). All samples were run at 25 °C using PBS pH 7.4, 1 mM DTT, 10 mM CaCl2, 5% DMSO, and […] FITC- DSP178–627, with 500 μM of each drug. Trypsin, chymotrypsin, or calpain at either 1:50, 1:50, or 1:20 concentration was added directly before data collection with an average void time of 2 min. Control experiments in each plate were conducted in triplicate and consisted of DSP178–627 + DMSO + protease as a positive control and DSP178–627 + DMSO + [compound left out] + protease as a negative control. Only plates that had functional positive and negative controls were used in data analysis. Samples were excited at 485 nm, and polarization was monitored at 528 nm. Data were collected at 5 min increments for 1–3 h. […] Therefore, we next tested whether these 62 compounds also prevent wildtype and variant DSP degradation in the presence of calpain. […] (A) Normalized fluorescent polarization of WT and sDSP variants in the presence of a 1:20 ratio of calpain plus 500 μM drug, as compared to calpain alone (black) (B) Identity and chemical structure of the six best-performing compounds.

sDSP S507F = target: T2, sDSP S507F (Homo sapiens, UniProt P15924, S507F); set-up: FITC-sDSP degradation by calpain (1:20), fluorescence polarization after 60 min, per cent of calpain-only control; conditions: degradation rate of DSP S507F by calpain; read-out: % of control remaining
T2 construct: gene DSP; N-terminal fragment, residues 178-627
Description: as §1

sDSP (DSP178–627) [2] = target: T3, sDSP (DSP178–627) (Homo sapiens, UniProt P15924); set-up: FITC-sDSP degradation by calpain (1:20), fluorescence polarization after 60 min, per cent of calpain-only control; conditions: degradation rate of DSP WT by calpain; read-out: % of control remaining
T3 construct: gene DSP; N-terminal spectrin repeat/SH3 fragment, residues 178-627; pGEX-1 GST fusion cut with thrombin, E. coli BL21(DE3); fluorescein-5-maleimide label on exposed cysteines (C405, C524)
T3 sequence (P15924 178-627): T1 sequence (P15924 178-627 S442F) with F265S
Description: as §1

sDSP (DSP178–627) [3] = target: T4, sDSP (DSP178–627) (Homo sapiens, UniProt P15924, R451G); set-up: FITC-sDSP degradation by calpain (1:20), fluorescence polarization after 60 min, per cent of calpain-only control; conditions: degradation rate of DSP R451G by calpain; read-out: % of control remaining
T4 construct: gene DSP; N-terminal spectrin repeat/SH3 fragment, residues 178-627; pGEX-1 GST fusion cut with thrombin, E. coli BL21(DE3); fluorescein-5-maleimide label on exposed cysteines (C405, C524)
T4 sequence (P15924 178-627 R451G): T1 sequence (P15924 178-627 S442F) with F265S, R274G
Description: as §1

sDSP (DSP178–627) [4] = target: T1, sDSP (DSP178–627); set-up: FITC-sDSP S442F degradation by trypsin (1:50), fluorescence polarization after 60 min, per cent of protease-only control; conditions: degradation rate of DSP S442F by trypsin; read-out: % of control remaining
Description: Fluorescence Polarization (FP) assays were conducted in […] format using a BioTek Synergy H4 plate reader with polarization capacity (Agilent; Savage, MD, USA). All samples were run at 25 °C using PBS pH 7.4, 1 mM DTT, 10 mM CaCl2, 5% DMSO, and […] FITC- DSP178–627, with 500 μM of each drug. Trypsin, chymotrypsin, or calpain at either 1:50, 1:50, or 1:20 concentration was added directly before data collection with an average void time of 2 min. Control experiments in each plate were conducted in triplicate and consisted of DSP178–627 + DMSO + protease as a positive control and DSP178–627 + DMSO + [compound left out] + protease as a negative control. Only plates that had functional positive and negative controls were used in data analysis. Samples were excited at 485 nm, and polarization was monitored at 528 nm. Data were collected at 5 min increments for 1–3 h. A mutation that partially occludes the DSP calpain cleavage site rescues DSP protein levels. We next assessed whether protease-dependent cleavage can also be blocked by small molecules. We screened 2496 FDA-approved drugs for their ability to prevent trypsin-dependent cleavage of sDSP S442F in our FP assay (Figure 3A). […] No change in fluorescence polarization after an hour is indicative of 0% protein degradation rate, as occurs in the [compound left out] positive control. […] (A) sDSP S442F degradation in the presence of trypsin plus 2496 compounds from the Cayman chemical “FDA library”. A degradation rate of 100% indicates the same desmoplakin degradation rate with and without the addition of 500 μM drug while a 0% rate indicates no degradation, as judged by fluorescent polarization values after 1 h. A trypsin-only control and a trypsin + [compound left out] control is indicated. Protection (red lines) was arbitrarily set between 33% and −10%. […] (B) Example of how the data in A was generated.

T2 sequence (P15924 whole entry S507F, the tested form may be a part): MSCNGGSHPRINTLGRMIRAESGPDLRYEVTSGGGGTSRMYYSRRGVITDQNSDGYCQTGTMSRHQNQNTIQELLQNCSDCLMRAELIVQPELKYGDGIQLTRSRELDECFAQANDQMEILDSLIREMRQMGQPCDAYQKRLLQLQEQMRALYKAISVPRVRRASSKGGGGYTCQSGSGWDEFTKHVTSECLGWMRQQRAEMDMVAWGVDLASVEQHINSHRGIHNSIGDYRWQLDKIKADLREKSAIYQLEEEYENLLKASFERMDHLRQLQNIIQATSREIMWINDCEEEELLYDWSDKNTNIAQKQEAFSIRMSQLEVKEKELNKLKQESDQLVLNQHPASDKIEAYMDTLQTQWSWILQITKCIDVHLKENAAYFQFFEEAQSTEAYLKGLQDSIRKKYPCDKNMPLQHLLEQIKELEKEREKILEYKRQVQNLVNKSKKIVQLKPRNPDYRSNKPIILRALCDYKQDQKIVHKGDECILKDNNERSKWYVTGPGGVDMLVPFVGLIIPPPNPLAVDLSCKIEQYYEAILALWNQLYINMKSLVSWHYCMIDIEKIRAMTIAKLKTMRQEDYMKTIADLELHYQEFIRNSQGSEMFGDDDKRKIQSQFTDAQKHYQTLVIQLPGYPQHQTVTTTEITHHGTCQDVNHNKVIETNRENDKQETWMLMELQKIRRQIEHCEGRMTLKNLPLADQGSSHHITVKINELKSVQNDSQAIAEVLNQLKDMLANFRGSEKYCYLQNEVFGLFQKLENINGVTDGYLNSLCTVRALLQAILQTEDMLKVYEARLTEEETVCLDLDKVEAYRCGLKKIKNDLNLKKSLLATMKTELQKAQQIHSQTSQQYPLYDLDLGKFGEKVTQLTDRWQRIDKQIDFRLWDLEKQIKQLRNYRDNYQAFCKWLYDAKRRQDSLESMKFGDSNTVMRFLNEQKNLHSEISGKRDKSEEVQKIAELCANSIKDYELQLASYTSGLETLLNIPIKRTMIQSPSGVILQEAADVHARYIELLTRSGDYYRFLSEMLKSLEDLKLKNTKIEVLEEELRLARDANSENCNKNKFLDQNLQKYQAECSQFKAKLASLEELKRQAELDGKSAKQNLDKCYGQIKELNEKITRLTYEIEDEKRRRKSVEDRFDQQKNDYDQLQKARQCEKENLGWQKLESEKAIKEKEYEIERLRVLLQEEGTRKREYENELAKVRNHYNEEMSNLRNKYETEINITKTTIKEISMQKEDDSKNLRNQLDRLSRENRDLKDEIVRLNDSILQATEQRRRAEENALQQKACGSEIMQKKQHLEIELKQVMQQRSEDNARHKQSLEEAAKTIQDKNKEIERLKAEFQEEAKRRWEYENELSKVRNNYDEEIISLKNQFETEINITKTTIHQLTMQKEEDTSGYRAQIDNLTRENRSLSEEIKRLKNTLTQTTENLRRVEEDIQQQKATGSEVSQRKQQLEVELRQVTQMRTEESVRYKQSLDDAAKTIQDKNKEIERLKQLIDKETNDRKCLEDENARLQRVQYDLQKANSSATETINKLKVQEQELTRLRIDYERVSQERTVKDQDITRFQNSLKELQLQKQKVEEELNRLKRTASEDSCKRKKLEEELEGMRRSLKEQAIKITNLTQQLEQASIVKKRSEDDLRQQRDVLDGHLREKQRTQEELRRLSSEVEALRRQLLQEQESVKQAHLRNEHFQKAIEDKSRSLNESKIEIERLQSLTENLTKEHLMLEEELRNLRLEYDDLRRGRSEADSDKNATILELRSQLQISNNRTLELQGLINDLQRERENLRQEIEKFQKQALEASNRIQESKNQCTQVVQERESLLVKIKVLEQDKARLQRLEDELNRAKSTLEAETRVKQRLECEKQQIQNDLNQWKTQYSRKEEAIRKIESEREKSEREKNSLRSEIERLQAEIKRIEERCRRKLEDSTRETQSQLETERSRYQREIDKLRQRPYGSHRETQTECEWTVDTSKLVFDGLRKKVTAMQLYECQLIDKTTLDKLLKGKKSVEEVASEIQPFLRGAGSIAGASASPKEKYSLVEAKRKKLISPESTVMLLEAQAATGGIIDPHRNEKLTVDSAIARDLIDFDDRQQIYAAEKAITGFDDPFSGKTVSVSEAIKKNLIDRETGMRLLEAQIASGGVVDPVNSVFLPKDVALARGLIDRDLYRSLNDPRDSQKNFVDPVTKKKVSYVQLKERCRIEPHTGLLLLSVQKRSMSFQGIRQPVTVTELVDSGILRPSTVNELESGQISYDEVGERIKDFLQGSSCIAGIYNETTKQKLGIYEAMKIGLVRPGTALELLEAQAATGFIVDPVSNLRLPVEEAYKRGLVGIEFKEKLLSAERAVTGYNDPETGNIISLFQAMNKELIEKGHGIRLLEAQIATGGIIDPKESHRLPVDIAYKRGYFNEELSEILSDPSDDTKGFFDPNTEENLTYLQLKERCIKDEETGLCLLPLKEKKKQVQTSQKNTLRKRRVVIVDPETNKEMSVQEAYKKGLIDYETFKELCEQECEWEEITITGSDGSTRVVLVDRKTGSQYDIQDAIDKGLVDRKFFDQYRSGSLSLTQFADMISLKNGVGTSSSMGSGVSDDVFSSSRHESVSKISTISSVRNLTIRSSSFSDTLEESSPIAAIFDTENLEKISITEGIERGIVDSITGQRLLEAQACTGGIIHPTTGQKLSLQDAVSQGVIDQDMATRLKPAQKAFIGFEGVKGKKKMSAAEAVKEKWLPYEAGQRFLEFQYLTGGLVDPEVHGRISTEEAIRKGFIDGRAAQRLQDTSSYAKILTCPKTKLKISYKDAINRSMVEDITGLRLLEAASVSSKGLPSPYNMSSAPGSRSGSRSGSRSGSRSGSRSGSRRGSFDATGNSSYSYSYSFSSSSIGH

| remaining activity at 500 µM (sDSP (DSP178–627) [1]) [%] | remaining activity at 500 µM (sDSP S507F) [%] | remaining activity at 500 µM (sDSP (DSP178–627) [2]) [%] | remaining activity at 500 µM (sDSP (DSP178–627) [3]) [%] | remaining activity at 500 µM (sDSP (DSP178–627) [4]) [%] | SMILES |
| --- | --- | --- | --- | --- | --- |
| 23 | 24 | 35 | 34 | 32 | CNC(=O)c1c(F)cccc1Nc1nc(Nc2cc3c(cc2OC)CCN3C(=O)CN(C)C)nc2[nH]ccc12 [GSK1838705A] |
| 62 | 108 | -6 | 4 | -3 | Cc1ccc(NC(=O)c2ccc(CN3CCN(C)CC3)cc2)cc1Nc1nccc(-c2cccnc2)n1 [Imatinib] |
| -40 | 84 | 67 | 15 | 18 | Cn1cc(-c2ccc(F)c(C(F)(F)F)c2)nc1C1CCN(c2ncnc3[nH]ncc23)CC1 [LY2584702] |
| 62 | 4 | 118 | 40 | 32 | O=C(NC1CCN(CCCCC2(C(=O)NCC(F)(F)F)c3ccccc3-c3ccccc32)CC1)c1ccccc1-c1ccc(C(F)(F)F)cc1 [Lomitapide] |
| 101 | 107 | -8 | -41 | 1 | CN1CCN(C2=Nc3ccccc3Oc3ccc(Cl)cc32)CC1 [Loxipine Succinate] |
| -3 | 133 | -8 | 26 | 20 | Fc1ccc([C@@H]2CCNC[C@H]2COc2ccc3c(c2)OCO3)cc1 [Paraxetine] |
| 21 | -30 | 24 | -20 | 18 | CCCCCCCCCCCCOS(=O)(=O)O [SDS] |
| 87 | 34 | 48 | 38 | 31 | CC(=O)O[C@H]1C(=O)[C@@]2(C)[C@H]([C@H](OC(=O)c3ccccc3)[C@]3(O)C[C@H](OC(=O)[C@H](O)[C@@H](NC(=O)c4ccccc4)c4ccccc4)C(C)=C1C3(C)C)[C@]1(OC(C)=O)CO[C@@H]1C[C@@H]2O [Taxol] |
| 26 | 31 | 30 | 33 | 32 | CCCCc1ncc(/C=C(\Cc2cccs2)C(=O)O)n1Cc1ccc(C(=O)O)cc1 [eprosarten mesylate] |
| -3 | 3 | 22 | 8 | 26 | CCCCCCCCCCCCCCCC(=O)NCCO [palmitoylethanolamide] |

The next lines start with the compound.

| SMILES | remaining activity at 500 µM (sDSP (DSP178–627) [1]) [%] | remaining activity at 500 µM (sDSP S507F) [%] | remaining activity at 500 µM (sDSP (DSP178–627) [2]) [%] | remaining activity at 500 µM (sDSP (DSP178–627) [3]) [%] | remaining activity at 500 µM (sDSP (DSP178–627) [4]) [%] |
| --- | --- | --- | --- | --- | --- |
| C=C(c1ccc(C(=O)O)cc1)c1cc2c(cc1C)C(C)(C)CCC2(C)C [Bexarotene] | 84 | 4 | 81 | 39 | 26 |
| NC1(Cc2ccc(Cl)cc2)CCN(c2ncnc3[nH]ccc23)CC1 [CCT128930] | 86 | 20 | 54 | 32 | 20 |
| COc1ccc(-c2cc(=O)c3c(O)cc(O)cc3o2)cc1O [Diosmetin] | 73 | 0 | 84 | 30 | 18 |
| CC/C=C\C/C=C\C/C=C\C/C=C\C/C=C\C/C=C\CCC(=O)O [Docosahexaenoic Acid] | -19 | 104 | -12 | 118 | 32 |
| CCCCc1oc2ccc(NS(C)(=O)=O)cc2c1C(=O)c1ccc(OCCCN(CCCC)CCCC)cc1 [Dronedarone HCl] | 0 | 25 | 143 | 20 | 23 |
| CCCCCCCCc1ccc(CCC(N)(CO)CO)cc1 [Fingolimod] | 70 | 32 | 35 | -13 | -1 |
| CCN(CC)CC#CCOC(=O)C(O)(c1ccccc1)C1CCCCC1 (stereo not shown) [Oxybutynin chloride] | -5 | 77 | 91 | 31 | 24 |
